Assay results as given in patent US11752215B2, “Targeting tumor cells with chemotherapeutic agents conjugated to anti-matriptase antibodies by in vivo cleavable linking moieties” (priority 2016, dated 2023).
“Also recorded” adds a separate entry of the source.

Columns and labels:
[1] = system: bone marrow-derived MSCs (lack matriptase expression); test: Tolerance of bone marrow-derived mesenchymal stromal cells (cell count); type: cell-based, human; conditions: 5 nM, 4 days
Experimental: Cell numbers were determined by Vi-Cell counter.
Human bone marrow-derived MSCs, which lack matriptase expression, were used as a control to determine the cytotoxic selectivity of M24-DOX as shown in FIG. 4 where bone marrow-derived mesenchymal stromal cells (5×10^4/well, 24-well plates) were treated with M24-DOX or free DOX at varying concentrations for 4 days. Cell numbers were determined by Vi-Cell counter.

[2] = system: breast tumors (MDA-MB468); test: Human breast xenograft tumor model, M69-DOX; type: in vivo, NOD/SCID mice; conditions: 2 mg/kg
Experimental: FIG. 8 illustrates the M69-DOX conjugate targeting active matriptase inhibited breast tumor growth in vivo, comparing treatment by M69-DOX at 10 mg/Kg and 20 mg/Kg doses with treatment by DOX at 2 mg/Kg dose and the control.
FIG. 9 illustrates reduction of the tumor weight by M69-DOX at 10 mg/Kg and 20 mg/Kg doses in comparison with treatment by DOX at 2 mg/Kg dose and the control.
To assess the efficacy of M69-DOX to suppress tumor growth in vivo, a human breast xenograft tumor model was used. NOD/SCID mice bearing breast tumors (MDA-MB468) were treated twice weekly with M69-DOX at either 20 or 10 mg/kg, as well as treated with DOX at 2 mg/kg. […] As a single mAb was attached with 7 molecules of DOX, a dose at 10 mg/kg of M69-DOX is equivalent to […] of DOX administered.
Reduced Weights of Tumor Masses in Mice Treated with M69-DOX. At the end of the treatment course, the tumor masses were collected from the experimental mice, and were weighed. The average weights of tumors from the groups treated with M69-DOX at either dose as well as treated with DOX were reduced to about 50% of the one from the untreated control group (FIG. 9). Significant reduction in tumor weights by M69-DOX further confirms the efficacy of site-directed delivery of DOX to tumor cells expressing activated matriptase.

MM cells = test: MM cell proliferation, DOX-conjugates alone and combined with thalidomide; type: cell-based; conditions: thalidomide alone
Description: FIGS. 6A and B illustrate that thalidomide sensitizes MM cells to M69-DOX, but not M24-DOX: (A) comparison of treatment of MM cells by M69-DOX alone with the M69-DOX/thalidomide combination treatment; and (B) comparison of treatment of MM cells by M24-DOX alone with the M24-DOX/thalidomide combination treatment.
Thalidomide is a therapeutic for multiple myeloma treatment, and the combination of thalidomide and dexamethasone is one of the most common regimens for treatment of patients with multiple myeloma, with an response rate of up to 60-70% (Denz, U., Eur. J. Cancer., 2006, 42:1591-1600; Gieseler, F., et al., Thromb. Haemost., 2008, 99: 1001-1007). The efficacy of both DOX-conjugates in combination with current MM therapeutics such as thalidomide was tested.

matriptase = test: Matriptase activation in MM cells (Western analysis with mAb M69); type: cell-based, human; conditions: 24-hour treatment, 50 μM
Experimental: (§1) FIG. 5 illustrates activation of matriptase in MM cells induced by thalidomide. MM cells (MM.1S) were treated with varying concentrations of thalidomide as indicated for 24 hours followed by Western analyses to detect the activation of matriptase using a specific monoclonal antibody (M69) to the active form of the enzyme. […] GAPDH served as control.
as §1, with “7” for “5”
To examine the increase in cytotoxicity that resulted with the thalidomide and M69-DOX conjugate we measured the effect of thalidomide on expression of activated matriptase.

PC-3 prostate carcinoma = conditions: PC-3 xenograft; cited from earlier work

## COc1cccc2c1C(=O)c1c(O)c3c(c(O)c1C2=O)C[C@@](O)(C(=O)CO)C[C@@H]3OC1CC(N)C(O)C(C)O1 (stereo partly drawn) [DOX, (8S,10S)-10-(4-amino-5-hydroxy-6-methyl-tetrahydro-2H-pyran-2-yloxy)-6,8,11-trihydroxy-8-(2-hydroxyacetyl)-1-methoxy-7,8,9,10-tetrahydrotetracene-5,12-dione]
[1]
  effect on MSC proliferation: significantly inhibit cell proliferation
[2]
  tumor growth: significantly abolished
[2]; end of treatment
  average weights of tumors relative to untreated control group: about 50%

## O=C1CCC(N2C(=O)c3ccccc3C2=O)C(=O)N1 (stereo not drawn) [thalidomide]
MM cells
  effect on MM cell proliferation: no effect on MM cell proliferation; also recorded: little effect on the cell proliferation of MM cells
matriptase
  activation of matriptase in MM cells: markedly enhanced

## ecotin: matriptase inhibitor
PC-3 prostate carcinoma
  tumor growth and metastasis formation: Reduced tumor growth and metastasis formation
